The source made the active and inactive calls.
How the values were obtained:
[1] = tested on: Klebsiella pneumoniae; assay: Antibacterial activity against Klebsiella pneumoniae assessed as percent susceptible isolates by CLSI M7-A7 method; assay type: functional
[2] = tested on: Staphylococcus warneri; assay: Antibacterial activity against Staphylococcus warneri assessed as percent susceptible isolates by CLSI M100-S18 method; assay type: functional
[3] = tested on: Staphylococcus saprophyticus; assay: Antibacterial activity against Staphylococcus saprophyticus by CLSI M100-S18 method; assay type: functional
[4] = tested on: Stenotrophomonas maltophilia; assay: Antibacterial activity against levofloxacin-susceptible Stenotrophomonas maltophilia by CLSI M7-A7 method; assay type: functional
[5] = tested on: Streptococcus agalactiae; assay: Antibacterial activity against Streptococcus agalactiae by CLSI M100-S18 method; assay type: functional
[6] = tested on: Staphylococcus aureus; assay: Antibacterial activity against ciprofloxacin-susceptible and methicillin-resistant Staphylococcus aureus assessed as percent susceptible isolates by CLSI M100-S18 method; assay type: functional
[7] = tested on: Moraxella catarrhalis; assay: Antibacterial activity against Moraxella catarrhalis by CLSI M7-A7 method; assay type: functional
[8] = tested on: Staphylococcus epidermidis
[9] = tested on: Staphylococcus epidermidis; assay: Antibacterial activity against non-ciprofloxacin-susceptible and methicillin-susceptible Staphylococcus epidermidis by CLSI M100-S18 method; assay type: functional
[10] = tested on: Morganella morganii; assay: Antibacterial activity against Morganella morganii by CLSI M7-A7 method; assay type: functional
[11] = tested on: Haemophilus influenzae; assay: Antibacterial activity against ciprofloxacin-susceptible Haemophilus influenzae by CLSI M7-A7 method; assay type: functional
[12] = tested on: Streptococcus sanguinis; assay: Antibacterial activity against Streptococcus sanguinis by CLSI M100-S18 method; assay type: functional
[13] = tested on: Pseudomonas aeruginosa; assay: Antibacterial activity against ciprofloxacin-susceptible Pseudomonas aeruginosa by CLSI M7-A7 method; assay type: functional
[14] = tested on: Streptococcus intermedius; assay: Antibacterial activity against Streptococcus intermedius by CLSI M100-S18 method; assay type: functional
[15] = tested on: Acinetobacter baumannii; assay: Antibacterial activity against Acinetobacter baumannii by CLSI M7-A7 method; assay type: functional
[16] = tested on: Staphylococcus warneri; assay: Antibacterial activity against Staphylococcus warneri by CLSI M100-S18 method; assay type: functional
[17] = tested on: Staphylococcus haemolyticus; assay: Antibacterial activity against Staphylococcus haemolyticus by CLSI M100-S18 method; assay type: functional
[18] = tested on: Klebsiella aerogenes; assay: Antibacterial activity against Enterobacter aerogenes by CLSI M7-A7 method; assay type: functional
[19] = tested on: Streptococcus salivarius; assay: Antibacterial activity against Streptococcus salivarius by CLSI M100-S18 method; assay type: functional
[20] = tested on: Staphylococcus epidermidis; assay: Antibacterial activity against ciprofloxacin-susceptible and methicillin-resistant Staphylococcus epidermidis assessed as percent susceptible isolates by CLSI M100-S18 method; assay type: functional
[21] = tested on: Proteus vulgaris; assay: Antibacterial activity against Proteus vulgaris assessed as percent susceptible isolates by CLSI M7-A7 method; assay type: functional
[22] = tested on: Streptococcus pneumoniae; assay: Antibacterial activity against non-levofloxacin susceptible Streptococcus pneumoniae by CLSI M100-S18 method; assay type: functional
[23] = tested on: Enterococcus faecium; assay: Antibacterial activity against vancomycin- resistant Enterococcus faecium by CLSI M100-S18 method; assay type: functional
[24] = tested on: Proteus mirabilis; assay: Antibacterial activity against Proteus mirabilis assessed as percent susceptible isolates by CLSI M7-A7 method; assay type: functional
[25] = tested on: Klebsiella aerogenes; assay: Antibacterial activity against Enterobacter aerogenes assessed as percent susceptible isolates by CLSI M7-A7 method; assay type: functional
[26] = tested on: Staphylococcus haemolyticus; assay: Antibacterial activity against Staphylococcus haemolyticus assessed as percent susceptible isolates by CLSI M100-S18 method; assay type: functional
[27] = tested on: Acinetobacter calcoaceticus; assay: Antibacterial activity against Acinetobacter calcoaceticus by CLSI M7-A7 method; assay type: functional
[28] = tested on: Citrobacter freundii; assay: Antibacterial activity against Citrobacter freundii assessed as percent susceptible isolates by CLSI M7-A7 method; assay type: functional
[29] = tested on: Streptococcus pneumoniae; assay: Antibacterial activity against non-levofloxacin susceptible Streptococcus pneumoniae assessed as percent susceptible isolates by CLSI M100-S18 method; assay type: functional
[30] = tested on: Staphylococcus aureus; assay: Antibacterial activity against ciprofloxacin-susceptible and methicillin-resistant Staphylococcus aureus by CLSI M100-S18 method; assay type: functional
[31] = tested on: Staphylococcus epidermidis; assay: Antibacterial activity against ciprofloxacin-susceptible and methicillin-resistant Staphylococcus epidermidis by CLSI M100-S18 method; assay type: functional
[32] = tested on: Haemophilus influenzae; assay: Antibacterial activity against ciprofloxacin-susceptible Haemophilus influenzae assessed as percent susceptible isolates by CLSI M7-A7 method; assay type: functional
[33] = tested on: Streptococcus oralis; assay: Antibacterial activity against Streptococcus oralis by CLSI M100-S18 method; assay type: functional
[34] = tested on: Pseudomonas aeruginosa; assay: Antibacterial activity against non-ciprofloxacin-susceptible Pseudomonas aeruginosa by CLSI M7-A7 method; assay type: functional
[35] = tested on: Stenotrophomonas maltophilia; assay: Antibacterial activity against non-levofloxacin susceptible Stenotrophomonas maltophilia by CLSI M7-A7 method; assay type: functional
[36] = tested on: Serratia marcescens; assay: Antibacterial activity against levofloxacin susceptible Serratia marcescens assessed as percent susceptible isolates by CLSI M7-A7 method; assay type: functional
[37] = tested on: Streptococcus anginosus; assay: Antibacterial activity against Streptococcus anginosus by CLSI M100-S18 method; assay type: functional
[38] = tested on: Enterococcus faecalis; assay: Antibacterial activity against vancomycin- resistant Enterococcus faecalis by CLSI M100-S18 method; assay type: functional
[39] = tested on: Klebsiella pneumoniae; assay: Antibacterial activity against Klebsiella pneumoniae by CLSI M7-A7 method; assay type: functional
[40] = tested on: Staphylococcus lugdunensis; assay: Antibacterial activity against Staphylococcus lugdunensis by CLSI M100-S18 method; assay type: functional
[41] = tested on: Staphylococcus hominis; assay: Antibacterial activity against Staphylococcus hominis assessed as percent susceptible isolates by CLSI M100-S18 method; assay type: functional
[42] = tested on: Streptococcus pyogenes; assay: Antibacterial activity against Streptococcus pyogenes by CLSI M100-S18 method; assay type: functional
[43] = tested on: Streptococcus equinus; assay: Antibacterial activity against Streptococcus bovis by CLSI M100-S18 method; assay type: functional
[44] = tested on: Streptococcus pneumoniae; assay: Antibacterial activity against levofloxacin susceptible Streptococcus pneumoniae assessed as percent susceptible isolates by CLSI M100-S18 method; assay type: functional
[45] = tested on: Proteus mirabilis; assay: Antibacterial activity against Proteus mirabilis by CLSI M7-A7 method; assay type: functional
[46] = tested on: Enterobacter cloacae; assay: Antibacterial activity against Enterobacter cloacae by CLSI M7-A7 method; assay type: functional
[47] = tested on: Klebsiella oxytoca; assay: Antibacterial activity against Klebsiella oxytoca by CLSI M7-A7 method; assay type: functional

NC[C@H]1O[C@H](O[C@H]2[C@H](O)[C@@H](O[C@H]3O[C@H](CO)[C@@H](O)[C@H](N)[C@H]3O)[C@H](N)C[C@@H]2N)[C@H](N)C[C@@H]1O [TOBRAMYCIN]
0.25 µg/mL: MIC50 [27] | MIC50 [39] | MIC50 [46]
32 µg/mL: MIC90 [17] | MIC90 [37] | MIC90 [40]
4 µg/mL: MIC90 [10] | MIC50 [15] | MIC90 [45]
1 µg/mL: MIC50 [10] | MIC90 [27] | MIC90 [30] | MIC90 [39] | MIC50 [45] | MIC90 [46] | MIC90 [47]
0.03 µg/mL: MIC50 [7] | MIC90 [7] | MIC50 [31]
68.4%: Activity [6]
100%: Activity [1] | Activity [21] | Activity [24] | Activity [25] | Activity [36]
> 64 µg/mL: MIC90 [15]
0.5 µg/mL: MIC50 [18] | MIC50 [30] | MIC50 [47]
inactive: MIC90 [8] | Activity [29] | Activity [32] | Activity [44]
16%: Activity [41]
> 8 µg/mL: MIC90 [5] | MIC90 [12] | MIC90 [14] | MIC90 [19] | MIC90 [33] | MIC90 [34] | MIC [35] | MIC90 [43]
8 µg/mL: MIC90 [11] | MIC90 [16] | MIC90 [18] | MIC50 [22] | MIC50 [34]
0.06 µg/mL: MIC90 [3] | MIC50 [5] | MIC50 [12] | MIC50 [14] | MIC50 [16] | MIC50 [19] | MIC50 [33] | MIC50 [43]
33.3%: Activity [20]
0.015 µg/mL: MIC50 [3]
99%: Activity [28]
34%: Activity [2]
16 µg/mL: MIC90 [22] | MIC50 [37] | MIC50 [38] | MIC50 [42] | MIC90 [42]
26.7%: Activity [26]
0.12 µg/mL: MIC50 [40]
2 µg/mL: MIC [4] | MIC50 [9] | MIC50 [11] | MIC50 [13] | MIC90 [13] | MIC50 [17]
> 128 µg/mL: MIC50 [23] | MIC90 [23] | MIC90 [38]

Reference: ChEMBL document CHEMBL1649565, “Besifloxacin, a novel fluoroquinolone, has broad-spectrum in vitro activity against aerobic and anaerobic bacteria” (Antimicrob Agents Chemother, 2009)
